{
  "source": "ChEMBL document CHEMBL1157929",
  "about": "“Thioether benzenesulfonamide inhibitors of carbonic anhydrases II and IV: structure-based drug design, synthesis, and biological evaluation” (Bioorg Med Chem, 2010)",
  "data": [
    {"assay": "Solubility at pH 6.5 after 24 hrs by chemiluminescence assay", "type": "physicochemical", "details": "buffer", "units": {"solubility at 24 h": "µM"}, "values": [
      {"smiles": "CCNC(=O)c1cc(S(N)(=O)=O)cnc1Sc1ccccc1", "solubility at 24 h": 118},
      {"smiles": "COCCCNC(=O)c1cc(S(N)(=O)=O)cnc1Sc1ccc(F)c(F)c1", "solubility at 24 h": 40.9},
      {"smiles": "NS(=O)(=O)c1cnc(Sc2ccccc2)c(C(=O)NCCc2ccccc2)c1", "solubility at 24 h": "< 22.2"},
      {"smiles": "COc1ccc(CNC(=O)c2cc(S(N)(=O)=O)cnc2Sc2ccc(F)c(F)c2)cc1", "solubility at 24 h": "< 19.9"},
      {"smiles": "COCCCNC(=O)c1cc(S(N)(=O)=O)cnc1Sc1cccc(F)c1", "solubility at 24 h": 89.6},
      {"smiles": "NS(=O)(=O)c1ccc(Sc2c(F)c(F)cc(F)c2F)c(C(=O)NCCc2ccccn2)c1", "solubility at 24 h": 211},
      {"smiles": "CCNCc1cc(S(N)(=O)=O)cnc1Sc1ccc(F)c(F)c1", "solubility at 24 h": 449},
      {"smiles": "COCCCNCc1cc(S(N)(=O)=O)cnc1Sc1ccc(F)c(F)c1", "solubility at 24 h": 497},
      {"smiles": "CCNC(=O)c1cc(S(N)(=O)=O)cc(F)c1SCC(C)C", "solubility at 24 h": 553},
      {"smiles": "NS(=O)(=O)c1ccc(Sc2c(F)c(F)cc(F)c2F)nc1", "solubility at 24 h": 558},
      {"smiles": "NS(=O)(=O)c1ccc(Sc2ccccc2)c(C(=O)NCc2ccccn2)c1", "solubility at 24 h": "> 275"},
      {"smiles": "COCCNC(=O)c1cc(S(N)(=O)=O)ccc1SCCc1ccccc1", "solubility at 24 h": "> 304"},
      {"smiles": "CC(C)CNC(=O)c1cc(S(N)(=O)=O)ccc1SC(C)C", "solubility at 24 h": 689},
      {"smiles": "CCNC(=O)c1cc(S(N)(=O)=O)ccc1SC1CCCC1", "solubility at 24 h": 628},
      {"smiles": "CCNC(=O)c1cc(S(N)(=O)=O)ccc1Sc1ccccc1", "solubility at 24 h": 205},
      {"smiles": "NS(=O)(=O)c1ccc(Oc2ccccc2)c(C(=O)NCc2ccccc2)c1", "solubility at 24 h": 28.5},
      {"smiles": "NS(=O)(=O)c1ccc(SCc2ccccc2)c(C(=O)NCc2ccccc2)c1", "solubility at 24 h": "< 24.2"},
      {"smiles": "NS(=O)(=O)c1ccc(Sc2ccccc2CO)c(C(=O)NCc2ccccn2)c1", "solubility at 24 h": "> 258"},
      {"smiles": "NS(=O)(=O)c1ccc(Sc2ccccn2)c(C(=O)NCc2ccccn2)c1", "solubility at 24 h": "> 253"},
      {"smiles": "CCNC(=O)c1cc(S(N)(=O)=O)cnc1Sc1cccc(F)c1", "solubility at 24 h": 43.2},
      {"smiles": "NS(=O)(=O)c1ccc(Sc2ccccc2)c(C(=O)NCc2ccccc2)c1", "solubility at 24 h": "< 25.1"},
      {"smiles": "NS(=O)(=O)c1ccc(S(=O)(=O)c2ccccc2)c(C(=O)NCc2ccccc2)c1", "solubility at 24 h": 55.9},
      {"smiles": "NS(=O)(=O)c1cnc(Sc2ccc(F)c(F)c2)c(CO)c1", "solubility at 24 h": "> 353"},
      {"smiles": "CN(C)CCNC(=O)c1cc(S(N)(=O)=O)cnc1Sc1ccccc1", "solubility at 24 h": "> 265"},
      {"smiles": "COCCNC(=O)c1cc(S(N)(=O)=O)cnc1Sc1ccccc1", "solubility at 24 h": 35.6},
      {"smiles": "NS(=O)(=O)c1cnc(Sc2c(F)c(F)cc(F)c2F)c(C(=O)NCc2ccccn2)c1", "solubility at 24 h": "< 21.2"},
      {"smiles": "CCNC(=O)c1cc(S(N)(=O)=O)cc(F)c1SC(C)C", "solubility at 24 h": 498},
      {"smiles": "COCCCNC(=O)c1cc(S(N)(=O)=O)cnc1Sc1ccccc1", "solubility at 24 h": "> 287"},
      {"smiles": "CCCNC(=O)c1cc(S(N)(=O)=O)cnc1Sc1ccccc1", "solubility at 24 h": 156},
      {"smiles": "COCCCNC(=O)c1cc(S(N)(=O)=O)cnc1Sc1c(F)c(F)cc(F)c1F", "solubility at 24 h": 214},
      {"smiles": "NCCCCNC(=O)c1cc(S(N)(=O)=O)cnc1Sc1c(F)c(F)cc(F)c1F", "solubility at 24 h": "> 265"},
      {"smiles": "COc1ccc(CCCNC(=O)c2cc(S(N)(=O)=O)cnc2Sc2c(F)c(F)cc(F)c2F)cc1", "solubility at 24 h": "< 19"}
    ]},
    {"assay": "physchem", "details": "buffer, pH 6.5", "units": {"solubility thermodynamic at 4 h": "µM"}, "values": [
      {"smiles": "CCNC(=O)c1cc(S(N)(=O)=O)cc(F)c1SCC(C)C", "solubility thermodynamic at 4 h": 395},
      {"smiles": "NS(=O)(=O)c1ccc(Sc2c(F)c(F)cc(F)c2F)nc1", "solubility thermodynamic at 4 h": 231},
      {"smiles": "COCCCNC(=O)c1cc(S(N)(=O)=O)cnc1Sc1c(F)c(F)cc(F)c1F", "solubility thermodynamic at 4 h": 124},
      {"smiles": "NCCCCNC(=O)c1cc(S(N)(=O)=O)cnc1Sc1c(F)c(F)cc(F)c1F", "solubility thermodynamic at 4 h": 3090}
    ]}
  ]
}
